# From PubChem BioAssay (NCI)
#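 All cell lines were grown in 96-well plates and treated with compound for 48 hours. GI50 marks 50% less growth. The concentration for full growth arrest is given as TGI.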
# Legend:
# Assay in all cases: NCI-60 cell line screen, 48 h
# IGROV1 ovarian = tested on: IGROV1 ovarian
# SK-OV-3 ovarian = tested on: SK-OV-3 ovarian
# SR leukemia = tested on: SR leukemia
# NCI-H226 lung = tested on: NCI-H226 lung
# 786-0 renal = tested on: 786-0 renal
# CAKI-1 renal = tested on: CAKI-1 renal
# NCI-H23 lung = tested on: NCI-H23 lung
# RXF 393 renal = tested on: RXF 393 renal
# HCT-15 colon = tested on: HCT-15 colon
SMILES,TGI (IGROV1 ovarian),TGI (SK-OV-3 ovarian),TGI (SR leukemia),TGI (NCI-H226 lung),TGI (786-0 renal),TGI (CAKI-1 renal),TGI (NCI-H23 lung),TGI (RXF 393 renal),TGI (HCT-15 colon),GI50 (IGROV1 ovarian),GI50 (RXF 393 renal),GI50 (SK-OV-3 ovarian),GI50 (NCI-H226 lung),GI50 (HCT-15 colon),GI50 (786-0 renal),GI50 (CAKI-1 renal),GI50 (NCI-H23 lung),GI50 (SR leukemia)
Cc1ccccc1NC(=O)C1C(=O)N(c2ccccc2C)C(=O)/C1=N\NC(N)=S (centres undefined),> 100 µM,> 100 µM,> 100 µM,> 100 µM,> 100 µM,> 100 µM,> 100 µM,,,,,,,,,,,
CC(C)CCC1(CCN)C(=O)NC(=O)NC1=O,> 100 µM,> 100 µM,> 100 µM,> 100 µM,> 100 µM,> 100 µM,> 100 µM,> 100 µM,> 100 µM,,,,,,,,,
CCCCn1c(-c2ccc(C(=O)O/N=C(\N)c3ccc4c(c3)OCO4)cc2)nc(-c2ccccc2)c1-c1ccccc1,1.8 µM,> 100 µM,,> 100 µM,6.15 µM,3.37 µM,> 100 µM,4.93 µM,> 100 µM,0.465 µM,1.85 µM,7.13 µM,3.93 µM,2.63 µM,2.5 µM,1.35 µM,2.23 µM,
c1c[nH]c(CN2CCOCC2)n1,> 100 µM,> 100 µM,> 100 µM,> 100 µM,> 100 µM,> 100 µM,> 100 µM,> 100 µM,> 100 µM,,,,,,,,,
CN1/C(=C\C=C\C2=[N+](C)c3ccccc3C2(C)C)C(C)(C)c2ccccc21,1.74 µM,0.638 µM,4.44 µM,2.39 µM,5.44 µM,5.04 µM,0.529 µM,1.13 µM,7.85 µM,0.116 µM,0.216 µM,0.152 µM,0.103 µM,0.387 µM,0.251 µM,0.55 µM,0.0189 µM,0.194 µM
Cc1ccc(-c2nc3nc(-c4ccc(F)cc4)nc(N4CCCNCC4)c3o2)cc1,3.01 µM,3.37 µM,0.813 µM,4.05 µM,3.56 µM,2.74 µM,3.47 µM,3.11 µM,2.42 µM,1.59 µM,1.59 µM,1.87 µM,1.96 µM,1.06 µM,1.83 µM,1.44 µM,1.82 µM,0.256 µM
Cc1cc(I)cc(CN(C)CCCN2CCCC2)c1O,44.7 µM,61.2 µM,36.6 µM,> 100 µM,30.3 µM,32.2 µM,> 100 µM,41 µM,47.5 µM,19.5 µM,16.3 µM,20.5 µM,30.7 µM,19.1 µM,14.4 µM,16.2 µM,30 µM,7.52 µM
c1ccc2[nH]c(-c3ccc(Nc4nc(N5CCCCC5)nc(N5CCOCC5)n4)cc3)nc2c1,,5.43 µM,5.73 µM,17.7 µM,3.21 µM,,15.7 µM,3.28 µM,4.38 µM,,0.808 µM,2.37 µM,3.2 µM,1.88 µM,1.54 µM,,3.05 µM,0.73 µM
